Values quoted from earlier work in patent publication US12365644B2, “Co-crystal of ketoprofen, lysine and gabapentin, pharmaceutical compositions and their medical use” (DOMPÉ FARMACEUTICI S.P.A., priority 2020, dated 2025).

What was measured:
[1] = most common side effects

NCC1(CC(=O)O)CCCCC1 [Gabapentin]
side effect: ataxia [1]: 13%
side effect: dizziness [1]: 18%
side effect: fatigue [1]: 11%
side effect: somnolence [1]: 20%
time to utmost level in plasma (after oral administration): 3 to 4 h
attachment to plasma proteins (in vivo): does not attach to plasma proteins
excretion half-life (renal excretion): roughly 6 hours
